Measurements published in patent publication US20250041293A1, “AN IGF1R INHIBITOR AND AN AKT INHIBITOR FOR USE IN THE TREATMENT OF CANCER” (Genome Research Limited, priority 2022, published 2025).
Like-named read-outs stand apart in the source and are kept apart here.

What was measured:
[1] = tested on: Akt1/2, Aurora A/B,B-Raf, CDK2, and EGFR; settings: cited from earlier work
Akt1 = Akt1 (Homo sapiens, UniProt P31749); settings: cited from earlier work
Mek = settings: cited from earlier work
MAPK1/2 = settings: cited from earlier work
IGF1R = IGF1R (Homo sapiens, UniProt P08069); settings: assay format not stated; cited from earlier work
IGF1R, sequence (P08069 31-1367): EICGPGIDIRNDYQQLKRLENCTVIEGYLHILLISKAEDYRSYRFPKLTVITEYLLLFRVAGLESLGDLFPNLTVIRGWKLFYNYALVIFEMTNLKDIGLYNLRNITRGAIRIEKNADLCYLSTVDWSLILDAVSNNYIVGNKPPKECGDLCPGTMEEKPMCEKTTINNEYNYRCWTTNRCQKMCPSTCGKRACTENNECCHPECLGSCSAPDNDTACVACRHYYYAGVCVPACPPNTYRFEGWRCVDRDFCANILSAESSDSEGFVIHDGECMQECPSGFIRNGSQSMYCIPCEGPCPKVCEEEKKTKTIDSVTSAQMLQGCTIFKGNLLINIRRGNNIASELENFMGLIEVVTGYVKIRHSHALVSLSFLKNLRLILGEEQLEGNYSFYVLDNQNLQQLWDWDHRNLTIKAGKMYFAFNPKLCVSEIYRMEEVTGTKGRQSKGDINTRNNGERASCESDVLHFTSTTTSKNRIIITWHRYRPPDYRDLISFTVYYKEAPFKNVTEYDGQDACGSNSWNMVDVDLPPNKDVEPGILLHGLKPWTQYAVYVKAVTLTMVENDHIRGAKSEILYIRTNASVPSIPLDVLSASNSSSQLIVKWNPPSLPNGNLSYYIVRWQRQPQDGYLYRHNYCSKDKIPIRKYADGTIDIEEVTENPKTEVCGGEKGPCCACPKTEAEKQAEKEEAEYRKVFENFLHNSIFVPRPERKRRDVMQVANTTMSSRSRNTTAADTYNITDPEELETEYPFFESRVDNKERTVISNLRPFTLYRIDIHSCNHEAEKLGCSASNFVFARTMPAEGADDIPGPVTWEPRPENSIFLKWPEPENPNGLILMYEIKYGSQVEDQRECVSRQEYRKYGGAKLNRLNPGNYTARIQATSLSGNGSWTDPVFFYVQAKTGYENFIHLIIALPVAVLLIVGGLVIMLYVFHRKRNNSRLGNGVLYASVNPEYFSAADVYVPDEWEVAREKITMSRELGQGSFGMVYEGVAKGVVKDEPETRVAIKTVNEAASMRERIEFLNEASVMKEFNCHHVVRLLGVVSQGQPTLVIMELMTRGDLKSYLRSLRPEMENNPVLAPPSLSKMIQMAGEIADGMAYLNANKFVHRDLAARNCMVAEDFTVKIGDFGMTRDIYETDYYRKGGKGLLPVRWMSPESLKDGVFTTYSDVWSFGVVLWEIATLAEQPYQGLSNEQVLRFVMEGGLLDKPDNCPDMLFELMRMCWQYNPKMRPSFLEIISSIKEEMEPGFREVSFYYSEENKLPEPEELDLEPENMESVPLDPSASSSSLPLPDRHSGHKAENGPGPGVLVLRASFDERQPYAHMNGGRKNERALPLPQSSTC

insulin receptor (IR) = insulin receptor (IR) (Homo sapiens, UniProt P06213); settings: assay format not stated; cited from earlier work
insulin receptor (IR), sequence (P06213 28-1382): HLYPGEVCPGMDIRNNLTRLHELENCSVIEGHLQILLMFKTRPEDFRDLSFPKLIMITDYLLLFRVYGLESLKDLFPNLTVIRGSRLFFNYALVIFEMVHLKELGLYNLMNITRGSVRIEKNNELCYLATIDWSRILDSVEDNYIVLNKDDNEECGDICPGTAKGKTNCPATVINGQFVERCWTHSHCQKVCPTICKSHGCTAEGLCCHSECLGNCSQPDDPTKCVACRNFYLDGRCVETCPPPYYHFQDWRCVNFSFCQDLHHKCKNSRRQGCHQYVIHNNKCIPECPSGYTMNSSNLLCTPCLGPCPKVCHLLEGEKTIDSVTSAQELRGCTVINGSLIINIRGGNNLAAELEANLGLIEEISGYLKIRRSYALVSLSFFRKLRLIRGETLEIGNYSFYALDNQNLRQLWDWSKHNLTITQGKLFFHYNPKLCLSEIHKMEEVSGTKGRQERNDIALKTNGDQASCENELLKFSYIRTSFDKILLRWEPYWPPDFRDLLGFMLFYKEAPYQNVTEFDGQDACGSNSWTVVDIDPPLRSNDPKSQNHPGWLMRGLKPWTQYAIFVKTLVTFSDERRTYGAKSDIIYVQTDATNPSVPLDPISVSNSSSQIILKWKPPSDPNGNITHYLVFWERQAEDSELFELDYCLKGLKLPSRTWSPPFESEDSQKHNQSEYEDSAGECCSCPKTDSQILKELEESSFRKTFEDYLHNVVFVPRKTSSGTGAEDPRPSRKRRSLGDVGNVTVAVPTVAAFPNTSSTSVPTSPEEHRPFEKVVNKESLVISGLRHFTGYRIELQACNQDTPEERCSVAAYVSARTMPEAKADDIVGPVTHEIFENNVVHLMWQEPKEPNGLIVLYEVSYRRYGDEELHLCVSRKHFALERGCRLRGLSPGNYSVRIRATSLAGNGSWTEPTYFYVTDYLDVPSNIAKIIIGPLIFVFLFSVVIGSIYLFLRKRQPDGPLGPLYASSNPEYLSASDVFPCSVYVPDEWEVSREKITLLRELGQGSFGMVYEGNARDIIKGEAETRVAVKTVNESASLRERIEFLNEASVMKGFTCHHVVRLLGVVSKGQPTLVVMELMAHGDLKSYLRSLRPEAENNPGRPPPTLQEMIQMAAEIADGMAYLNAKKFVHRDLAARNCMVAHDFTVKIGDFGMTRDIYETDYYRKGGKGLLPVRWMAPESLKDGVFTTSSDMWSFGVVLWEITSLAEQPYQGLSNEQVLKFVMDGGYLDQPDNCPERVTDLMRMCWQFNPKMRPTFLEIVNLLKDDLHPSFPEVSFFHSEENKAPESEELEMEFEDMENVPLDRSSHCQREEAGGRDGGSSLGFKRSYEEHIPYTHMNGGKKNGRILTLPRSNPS

colon cancer cell lines = test: Anchored 2x7 combination viability screen (CellTiter-Glo, 72 h), colon cancer cell lines; format: cell-based; settings: in combination with MK-2206, colon; compared with Linsitinib+MK-2206
Method: To screen efficiently we used a 2×7 concentration matrix, or “anchored” approach. We screened each anchor compound at two optimised concentrations and a discontinuous 1,000-fold (7-point) dose-response curve of the library compound. Viability was read out after 72 h of drug treatment using CellTiter-Glo and drug responses for single agent and combination responses were fitted. […] The combination was screened in both anchor and library orientations, the first named compound being the anchor compound.

PKA = settings: cited from earlier work
PKC = settings: cited from earlier work
ABL T3151 = ABL T3151 (Homo sapiens, UniProt P00519, T315I); settings: cell-free assays; cited from earlier work
SRC = SRC (Homo sapiens, UniProt P12931); settings: cell-free assays; cited from earlier work
SRC, sequence (P12931 whole entry): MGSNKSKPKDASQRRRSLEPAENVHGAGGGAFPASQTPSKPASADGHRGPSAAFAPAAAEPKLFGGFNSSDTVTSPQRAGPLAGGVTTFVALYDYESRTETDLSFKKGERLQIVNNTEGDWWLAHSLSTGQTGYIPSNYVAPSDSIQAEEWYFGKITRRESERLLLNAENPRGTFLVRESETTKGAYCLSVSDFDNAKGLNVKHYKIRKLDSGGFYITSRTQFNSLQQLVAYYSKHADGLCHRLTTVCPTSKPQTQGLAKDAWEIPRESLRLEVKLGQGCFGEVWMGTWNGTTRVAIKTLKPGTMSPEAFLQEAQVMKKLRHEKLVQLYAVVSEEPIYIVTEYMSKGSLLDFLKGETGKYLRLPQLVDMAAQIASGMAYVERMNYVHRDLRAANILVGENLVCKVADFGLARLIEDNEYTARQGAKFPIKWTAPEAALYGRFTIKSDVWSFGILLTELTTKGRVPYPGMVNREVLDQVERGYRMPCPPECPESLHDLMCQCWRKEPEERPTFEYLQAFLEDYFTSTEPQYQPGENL

LYN = LYN (Homo sapiens, UniProt P07948); settings: cell-free assays; cited from earlier work
[2] = weekly 1-hr IV infusions; patients with solid tumours or multiple myeloma; cited from earlier work
[3] = phase I, patients with multiple myeloma; cited from earlier work
Akt2 = Akt2 (Homo sapiens, UniProt P31751); settings: assay format not stated; cited from earlier work
Akt2, sequence (P31751 whole entry): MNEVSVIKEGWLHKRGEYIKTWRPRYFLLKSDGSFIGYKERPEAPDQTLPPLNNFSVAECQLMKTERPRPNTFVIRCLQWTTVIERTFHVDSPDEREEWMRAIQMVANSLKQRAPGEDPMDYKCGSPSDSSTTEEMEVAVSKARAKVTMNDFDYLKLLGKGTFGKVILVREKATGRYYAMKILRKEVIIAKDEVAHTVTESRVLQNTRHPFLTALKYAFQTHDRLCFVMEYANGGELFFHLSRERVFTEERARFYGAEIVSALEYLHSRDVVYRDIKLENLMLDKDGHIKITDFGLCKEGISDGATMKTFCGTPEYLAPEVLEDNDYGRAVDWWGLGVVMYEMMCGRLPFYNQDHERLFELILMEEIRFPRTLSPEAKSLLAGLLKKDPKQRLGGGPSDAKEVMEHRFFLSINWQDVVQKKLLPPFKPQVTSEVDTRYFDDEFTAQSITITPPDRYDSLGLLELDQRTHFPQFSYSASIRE

Akt3 = Akt3 (Homo sapiens, UniProt Q9Y243); settings: assay format not stated; cited from earlier work
Akt3, sequence (Q9Y243 whole entry): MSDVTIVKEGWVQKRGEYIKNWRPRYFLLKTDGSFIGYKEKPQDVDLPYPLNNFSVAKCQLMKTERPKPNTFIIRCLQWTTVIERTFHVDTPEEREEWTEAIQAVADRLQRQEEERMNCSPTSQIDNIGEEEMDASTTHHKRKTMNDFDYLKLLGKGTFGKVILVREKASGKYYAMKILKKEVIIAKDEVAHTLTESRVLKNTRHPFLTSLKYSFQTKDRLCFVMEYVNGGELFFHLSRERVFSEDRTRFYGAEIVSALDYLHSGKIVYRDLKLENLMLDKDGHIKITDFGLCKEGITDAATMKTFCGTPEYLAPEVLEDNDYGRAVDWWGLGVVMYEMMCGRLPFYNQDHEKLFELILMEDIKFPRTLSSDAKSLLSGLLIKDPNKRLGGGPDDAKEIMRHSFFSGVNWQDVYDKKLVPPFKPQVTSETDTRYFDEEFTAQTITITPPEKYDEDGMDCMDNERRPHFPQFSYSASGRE

IR = IR (Homo sapiens, UniProt P06213); settings: cited from earlier work
IR, sequence (P06213 28-1382): as the sequence (P06213 28-1382) above

FGF-R, PDGF-R, or EGF-R = settings: for example FGF-R; cited from earlier work

Akt1, sequence (P31749 whole entry): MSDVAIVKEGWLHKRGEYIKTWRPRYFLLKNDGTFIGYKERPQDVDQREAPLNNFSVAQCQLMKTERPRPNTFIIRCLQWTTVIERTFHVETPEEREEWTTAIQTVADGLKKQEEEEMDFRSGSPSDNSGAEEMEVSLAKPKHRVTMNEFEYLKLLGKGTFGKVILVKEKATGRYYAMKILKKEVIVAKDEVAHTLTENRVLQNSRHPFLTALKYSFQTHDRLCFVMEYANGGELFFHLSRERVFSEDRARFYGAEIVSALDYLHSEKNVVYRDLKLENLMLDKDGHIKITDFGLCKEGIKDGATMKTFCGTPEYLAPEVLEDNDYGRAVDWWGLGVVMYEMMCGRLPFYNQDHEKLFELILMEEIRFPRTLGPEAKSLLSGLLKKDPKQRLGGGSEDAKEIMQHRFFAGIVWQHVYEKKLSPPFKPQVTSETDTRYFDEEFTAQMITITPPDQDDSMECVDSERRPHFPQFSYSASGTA

Question: Which “selectivity for IGF1R/IR than Akt1/2, Aurora A/B, B-Raf, CDK2, and EGFR” value [1] does the source give for `CCc1cc(Nc2nccc(-c3c(-c4ccc(OC)c(C(=O)Nc5c(F)cccc5F)c4)nc4ccccn34)n2)c(OC)cc1N1CCC(N2CCN(S(C)(=O)=O)CC2)CC1` [GSK1904529A, N-(2,6-difluorophenyl)-5-[3-[2-[5-ethyl-2-methoxy-4-[4-(4-methylsulfonylpiperazin-1-yl)-1-piperidyl]anilino]pyrimidin-4-yl]imidazo[1,2-a]pyridine-2-yl]-2-methoxy-benzamide] here?
Answer: The value was over 100 fold.

Question: Which “activity for Akt1 (in words)” value (Akt1) does the source give for `Cc1cc(N2CCOCC2)cc2[nH]c(-c3c(NC[C@@H](O)c4cccc(Cl)c4)cc[nH]c3=O)nc12` [BMS-536924] here?
Answer: Its value is “very little activity”.

Question: What about the IC50 (Mek) of the same molecule?
Answer: The IC50 was 182 nM.

Question: What about the “activity for MAPK1/2 (in words)” value (MAPK1/2) of the same molecule?
Answer: The value was “very little activity”.

Question: For `Cc1ccsc1C(=O)Nc1cc(CN2CCN(C(=O)CO)CC2)ccc1/C=C/c1n[nH]c2ccccc12` [KW-2450], which IC50 (IGF1R) is on record?
Answer: Its IC50 is 7.39 nM.

Question: And the IC50 (insulin receptor (IR))?
Answer: The IC50 was 5.64 nM.

Question: For `C[C@@]1(C(=O)Nc2ccc(F)nc2)CCCN1c1nc(Nc2cc(C3CC3)[nH]n2)c2cccn2n1` [BMS-754807, 1-[4-[(5-cyclopropyl-1H-pyrazol-3-yl)amino]pyrrolo[2,1-f][1,2,4]triazin-2-yl]-N-(6-fluoro-3-pyridyl)-2-methyl-pyrrolidine-2-carboxamide], which “synergy and activity of the IGF1Ri combined with MK-2206 (in words)” value (colon cancer cell lines) is on record?
Answer: Its value is “much lower”.

Question: And the “activity to PKA (in words)” value (PKA)?
Answer: The value was “little activity”.

Question: And the “activity to PKC (in words)” value (PKC)?
Answer: The value was “little activity”.

Question: What does the source list for `CC(C)c1cc(CNc2nc(Nc3cc(C4CC4)[nH]n3)cc(N3CCN(C)CC3)n2)on1` [XL228, N4-(5-cyclopropyl-1H-pyrazol-3-yl)-N2-[(3-isopropylisoxazol-5-yl)methyl]-6-(4-methylpiperazin-1-yl)pyrimidine-2,4-diamine]?
Answer: IC50 (ABL T3151): 1.4 nM; IC50 (SRC): 6.1 nM; IC50 (LYN): 2 nM; maximum tolerated dose (MTD) [2]: 6.5 mg/kg

Question: With `Cn1ncc(Cl)c1-c1cc(C(=O)N[C@H](CN)Cc2cccc(F)c2)sc1Cl` [Afuresertib, N-[(1S)-1-(aminomethyl)-2-(3-fluorophenyl)ethyl]-5-chloro-4-(4-chloro-2-methyl-pyrazol-3-yl)thiophene-2-carboxamide] as the molecule, how does the “maximum tolerated dose (MTD)” value [3] read?
Answer: Its value is 125 mg per day.

Question: What does the source list for `C[C@]1(O)C[C@@](N)(c2ccc(-c3nc4n(c3-c3ccccc3)COc3ccncc3-4)cc2)C1` [TAS-117, 3-amino-1-methyl-3-[4-(5-phenyl-8-oxa-3,6,12-triazatricyclo[7.4.0.0^2,6]trideca-1(9),2,4,10,12-pentaen-4-yl)phenyl]cyclobutan-1-ol]?
Answer: IC50 (Akt1; assay format not stated): 4.8 nM; IC50 (Akt2): 1.6 nM; IC50 (Akt3): 44 nM

Question: With `COc1cc([C@@H]2c3cc4c(cc3[C@H](O)[C@H]3COC(=O)[C@@H]23)OCO4)cc(OC)c1OC` [AXL-1717, (5R,5aR,8aS,9R)-5-hydroxy-9-(3,4,5-trimethoxyphenyl)-5a,6,8a,9-tetrahydro-5H-[2]benzofuro[5,6-f][1,3]benzodioxol-8-one] as the molecule, how does the “inhibition of tyrosine phosphorylation of the IR (in words)” value (IR) read?
Answer: The value was “does not co-inhibit”.

Question: And the “inhibition of tyrosine phosphorylation of a selected panel of receptors less related to IGF-IR (in words)” value (FGF-R, PDGF-R, or EGF-R)?
Answer: Its value is “does not co-inhibit”.
